Assay results from patent US20190209548A1, “LINKED DIARYL COMPOUNDS WITH ANTICANCER PROPERTIES AND METHODS OF USING THE SAME” (University of Maryland, College Park, priority 2014, published 2019).

Assays:
[1] = tested on: PC-3; assay: WST-1 IC50 determination, PC-3; type: cell-based, human; conditions: 72 hours, WST-1; for IC50: read-out: Anticancer activity IC50 ± SD, PC-3
Description: (§1) Cell lines and culturing. The following human cell lines were purchased from ATCC (ATCC, Manassas, Va.): prostate cancer cells (PC-3), triple negative breast cancer cells (MDA-MB-231), ovarian cancer cells (OVCAR-3), normal bone marrow (NBM) and normal fibroblast cells (MCR5A). MDA-MB-231 cells were grown at 37° C. with 5% CO2 atmosphere with DMEM (Life technologies, Carlsbad, Calif.) supplemented with heat-inactivated 10% (V/V) fetal bovine serum. OVCAR-3 and PC-3 cells were grown at 37° C. with 5% CO2 atmosphere with RPMI (Life technologies, Carlsbad, Calif.) supplemented with heat-inactivated 10% (V/V) fetal bovine serum. Cell lines were grown and maintained according to ATCC recommendations.
(§2) IC50 determination. Cell lines were seeded into 96-well plates the afternoon prior to treatment. Cell seeding number was determined by growing cells in log phase growth during drug treatment. Approximately 18 hours later, compounds were semi-serially diluted in dimethyl sulfoxide (DMSO) and then growth medium, and added to cells. Plates were incubated for 72 hours prior to addition of WST-1 (Promega, Madison Wis.). Plates were read after 4 additional hours of incubation at 37° C. using a Bio-Tek Synergy HT plate reader (Bio-Tek, Winooski, Vt.). Data was analyzed, graphed and IC50s generated using GraphPad Prism Software (Graphpad, La Jolla, Calif.).
(§3) IC50 determination: For the determination of IC50 for the azolamide class, the same protocol as described previously was followed.

[2] = tested on: OVCAR-3; assay: WST-1 IC50 determination, OVCAR-3; type: cell-based, human; conditions: 72 hours, WST-1; for IC50: read-out: Anticancer activity IC50 ± SD, OVCAR-3
Description: as §1, §2, §3

[3] = tested on: MDA-MB-231; assay: WST-1 IC50 determination, MDA-MB-231; type: cell-based, human; conditions: 72 hours, WST-1; for IC50: read-out: Anticancer activity IC50 ± SD, MDA-MB-231
Description: as §1, §2, §3

[4] = tested on: c-kit2; assay: FRET melting assay, c-kit2; type: binding; conditions: dual-labeled DNA 0.2 μM, DMZ analogues 1 μM, potassium cacodylate 60 mM pH 7.2
Description: (§4) Fluorescence resonance energy transfer (FRET) assay to determine Tm in absence and presence of ligands. Dual-labelled DNA was diluted from stock (50 μM) to 400 nM in 60 mM potassium cacodylate buffer (pH 7.2) and then annealed by heating at 85° C. for 10 min followed by cooling to room temperature in the heating block. Compounds were diluted from stock (20 mM in DMSO) to 2 μM in 60 mM cacodylate buffer (pH 7.2). 25 μL annealed DNA was added to 96-well plate followed by 25 μL diluted compounds. The sequences of labelled oligonucleotides were as follows: F21T 21-mer (5′-FAM-GGGTTAGGGTTAGGGTTAGGG-TAMRA-3′) (SEQ ID NO:11), c-kit2 26-mer (5′-FAM-CCCGGGCGGGCGCGAGGGAGGGGAGG-TAMRA-3′) (SEQ ID NO:12), k-RAS21R 21-mer (5′-FAM-AGGGCGGTGTGGGAAGAGGGA-TAMRA-3′) (SEQ ID NO:13), c-MYC 22-mer (5′-FAM-TGAGGGTGGGTAGGGTGGGTAA-TAMRA-3′) (SEQ ID NO:14) and duplex 26-mer (5′-FAM-TATAGCTATATTTTTTTATAGCTATA-TAMRA-3′) (SEQ ID NO: 15). Measurements were made in triplicate by using a LightCycler 480 System RT-PCR machine (Roche) and average values were reported. Fluorescence readings were made with excitation at 450-495 nm and detection at 515-545 nm, taken at intervals of 1.2° C./min in the range 25° C. to 95° C.

[5] = tested on: k-RAS21R; assay: FRET melting assay, k-RAS21R; type: binding; conditions: dual-labeled DNA 0.2 μM, DMZ analogues 1 μM, potassium cacodylate 60 mM pH 7.2
Description: as §4

[6] = tested on: c-MYC; assay: FRET melting assay, c-MYC; type: binding; conditions: dual-labeled DNA 0.2 μM, DMZ analogues 1 μM, potassium cacodylate 60 mM pH 7.2
Description: as §4

[7] = tested on: F21T; assay: FRET melting assay, F21T; type: binding; conditions: dual-labeled DNA 0.2 μM, DMZ analogues 1 μM, potassium cacodylate 60 mM pH 7.2
Description: as §4

[8] = tested on: duplex; assay: FRET melting assay, duplex DNA; type: binding; conditions: dual-labeled DNA 0.2 μM, DMZ analogues 1 μM, potassium cacodylate 60 mM pH 7.2
Description: as §4

Compound | Anticancer activity IC50 ± SD, PC-3 [1] | Anticancer activity IC50 ± SD, OVCAR-3 [2] | Anticancer activity IC50 ± SD, MDA-MB-231 [3] | ΔTm c-kit2 [4] [°C] | ΔTm k-RAS21R [5] [°C] | ΔTm c-MYC [6] [°C] | ΔTm F21T [7] [°C] | ΔTm duplex [8] | IC50 [1] [µM] | IC50 [2] [µM] | IC50 [3] [µM]
N=C(N)c1ccc(N)cc1 [4-aminobenzamidine, reference compound] | NE (NE means not effective. Cell viability was the same or greater than 75% of the DMSO control at 20 μM compound concentration.) | NE (NE means not effective. Cell viability was the same or greater than 75% of the DMSO control at 20 μM compound concentration.) | NE (NE means not effective. Cell viability was the same or greater than 75% of the DMSO control at 20 μM compound concentration.) | – | – | – | – | – | – | – | –
N#Cc1ccc(NN=Nc2ccc(C(=N)N)cc2)cc1 [DMZ2] | NE (NE means not effective. Cell viability was the same or greater than 75% of the DMSO control at 20 μM compound concentration.) | NE (NE means not effective. Cell viability was the same or greater than 75% of the DMSO control at 20 μM compound concentration.) | NE (NE means not effective. Cell viability was the same or greater than 75% of the DMSO control at 20 μM compound concentration.) | 5.30 ± 0.26 | 7.49 ± 0.00 | 8.06 ± 0.68 | 4.20 ± 0.00 | NE (NE means not effective binding (ΔTm < 1° C.)) | – | – | –
C#Cc1ccc(NN=Nc2ccc(C(=N)N)cc2)cc1 [DMZ3] | – | – | – | 5.30 ± 0.26 | 5.66 ± 0.51 | 7.13 ± 0.45 | 4.57 ± 0.26 | NE (NE means not effective binding (ΔTm < 1° C.)) | 22.5 ± 8.8 | 11.8 ± 1.7 | 30.2 ± 1.8
N#Cc1cccc(NN=Nc2ccc(C(=N)N)cc2)c1 [DMZ4] | NE (NE means not effective. Cell viability was the same or greater than 75% of the DMSO control at 20 μM compound concentration.) | NE (NE means not effective. Cell viability was the same or greater than 75% of the DMSO control at 20 μM compound concentration.) | NE (NE means not effective. Cell viability was the same or greater than 75% of the DMSO control at 20 μM compound concentration.) | 6.22 ± 0.26 | 2.00 ± 0.45 | 6.94 ± 0.26 | 4.57 ± 0.26 | NE (NE means not effective binding (ΔTm < 1° C.)) | – | – | –
C#Cc1cccc(NN=Nc2ccc(C(=N)N)cc2)c1 [DMZ5] | – | – | – | 5.48 ± 0.45 | 6.39 ± 0.89 | 7.51 ± 0.26 | 4.39 ± 0.26 | NE (NE means not effective binding (ΔTm < 1° C.)) | 18 ± 5.7 | 16.8 ± 3.1 | 20.5 ± 4.2
N=C(N)c1ccc(N=NNc2cccc(-c3ccccc3)c2)cc1 [DMZ6] | NE (NE means not effective. Cell viability was the same or greater than 75% of the DMSO control at 20 μM compound concentration.) | NE (NE means not effective. Cell viability was the same or greater than 75% of the DMSO control at 20 μM compound concentration.) | NE (NE means not effective. Cell viability was the same or greater than 75% of the DMSO control at 20 μM compound concentration.) | 5.48 ± 0.45 | 4.20 ± 0.90 | 7.49 ± 0.26 | 4.57 ± 0.26 | NE (NE means not effective binding (ΔTm < 1° C.)) | – | – | –
N=C(N)c1ccc(N=NNc2cccc(C#Cc3ccccc3)c2)cc1 [DMZ7] | – | – | – | 6.40 ± 0.26 | 2.56 ± 0.00 | 7.33 ± 0.26 | 4.20 ± 0.00 | NE (NE means not effective binding (ΔTm < 1° C.)) | 5.8 ± 0.2 | 6.5 ± 2.1 | 9.5 ± 1.3
